24 compounds from patent US11472811B2, “Pyrazolotriazolopyrimidine derivatives as A2A receptor antagonist” (BEIGENE, LTD., priority 2018, dated 2022) can be followed below.

The target in this experiment is human A2A receptor (A2AR) (Homo sapiens (Human), UniProt P29274). The experiment can be described thus: Luciferase reporter assay (HEK293-A2AR-luc2p/CRE/Hygro cells). It counts as cell-based. The following applies: 3 nM CGS21680, 5 h incubation. The procedure:
HEK293 cells were maintained in Dulbecco's modified Eagle's medium (DMEM, Gibco) supplemented with 10% fetal bovine serum (FBS, Thermo Scientific), 100 units/mL penicillin (Gibco), and 0.1 mg/mL streptomycin (Gibco) in a humidified 37° C. environment with 5% CO2. Plasmid encoding wild-type human A2A receptor (A2AR) (in pcDNA3.1) was synthesized by Genscript (Nanjing, China). Transfection of the plasmids was performed in 6-well plates with 4×10^5 cells using Lipofectamin 2000 (ThermoFisher Scientific) according to the instruction of the manufacturer. Cell clones that stably express A2AR were established and maintained in the same complete medium as the HEK293 cells in addition of G-418 (Gibico). Expression level of A2AR in each single cell clone was determined using immunoblotting and FACS method. HEK293-A2AR stable cells were then transfected with pGL4.29[luc2P/CRE/Hygro] (Promega) luciferase reporter plasmid for establishing the HEK293-A2AR-luc2p/CRE/Hygro stable cell line.
HEK293-A2AR-luc2p/CRE/Hygro cells were seeded at a density of 5,000 cells/well in DMEM with 1% FBS and 1 U/mL adenosine deaminase (ADA) (Sigma). After 18 h, the cells were treated with 3 nM CGS21680 plus a series dilution of A2AR antagonist, the compounds disclosed herein at the concentration of 0.1˜10000 nM, prepared in DMEM with 1% FBS. After 5 h incubation, the luciferase activity in cells were measured using the Bright-Glo Luciferase Assay System (Promega) according to manufacturer's instructions. The luminescence signal was measured using a PHERAstar FS plate reader (BMG Labtech). […] Maximal luminescence intensity was determined in the presence of 3 nM CGS21680 and was set as 100%. The IC50 value was calculated from a dose dependent inhibition curve across the range of compound concentrations.

Sequence of human A2A receptor (A2AR) (P29274 whole entry): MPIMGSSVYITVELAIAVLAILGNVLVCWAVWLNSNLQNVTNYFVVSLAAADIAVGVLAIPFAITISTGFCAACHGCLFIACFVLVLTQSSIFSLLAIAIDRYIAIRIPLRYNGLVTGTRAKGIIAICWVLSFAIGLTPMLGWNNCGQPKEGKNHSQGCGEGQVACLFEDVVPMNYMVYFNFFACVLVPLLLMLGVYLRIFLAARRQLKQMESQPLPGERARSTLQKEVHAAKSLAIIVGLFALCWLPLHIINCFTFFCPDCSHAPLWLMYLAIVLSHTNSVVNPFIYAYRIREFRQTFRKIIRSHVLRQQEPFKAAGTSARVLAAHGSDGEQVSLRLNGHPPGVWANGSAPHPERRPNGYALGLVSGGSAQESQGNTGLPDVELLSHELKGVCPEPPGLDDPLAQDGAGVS

The compound `CC(C(=O)NCC1CCCO1)(c1ccccc1)n1ncc2c1nc(N)n1nc(-c3ccco3)nc21` (stereo not drawn) [Example 49, 2-(5-amino-2-(furan-2-yl)-7H-pyrazolo[4,3-e][1,2,4]triazolo[1,5-c]pyrimidin-7-yl)-2-phenyl-N-((tetrahydrofuran-2-yl)methyl)propanamide] displayed a concentration for half-maximal inhibition (IC50) of 3.7 nM.

The compound `CC(C(=O)NCC1CCOCC1)(c1ccccc1)n1ncc2c1nc(N)n1nc(-c3ccco3)nc21` (stereo not drawn) [Example 97, 2-(5-amino-2-(furan-2-yl)-7H-pyrazolo[4,3-e][1,2,4]triazolo[1,5-c]pyrimidin-7-yl)-2-phenyl-N-((tetrahydro-2H-pyran-4-yl)methyl)propenamide] returned a half-maximal inhibitory concentration (IC50) of 10.4 nM.

Take `CC(C(=O)NC[C@@H]1CCCO1)(c1ccccc1)n1ncc2c1nc(N)n1nc(-c3ccco3)nc21` (stereo partly drawn) [Example 51, 2-(5-amino-2-(furan-2-yl)-7H-pyrazolo[4,3-e][1,2,4]triazolo[1,5-c]pyrimidin-7-yl)-2-phenyl-N—(((S)-tetrahydrofuran-2-yl)methyl)propanamide]: the half-inhibitory concentration (IC50) came to 2.7 nM.

In turn, `C[C@](C(=O)N[C@H]1C[C@@H](O)C1)(c1ccccc1)n1ncc2c1nc(N)n1nc(-c3ccco3)nc21` [Example 104B, (R)-2-(5-amino-2-(furan-2-yl)-7H-pyrazolo[4,3-e][1,2,4]triazolo[1,5-c]pyrimidin-7-yl)-(cis)-N-(3-hydroxycyclobutyl)-2-phenylpropanamide] yielded an IC50 of 9.1 nM. Compared with the last compound, the IC50 is about 3.4-fold higher.

Take `CC(C(=O)NC[C@H]1CCOC1)(c1ccccc1)n1ncc2c1nc(N)n1nc(-c3ccco3)nc21` (stereo partly drawn) [Example 54, 2-(5-amino-2-(furan-2-yl)-7H-pyrazolo[4,3-e][1,2,4]triazolo[1,5-c]pyrimidin-7-yl)-2-phenyl-N—(((R)-tetrahydrofuran-3-yl)methyl)propanamide]: half-maximal inhibition (IC50) was put at 8.1 nM.

For the compound `CC(C(=O)NCC1(O)COC1)(c1cccnc1)n1ncc2c1nc(N)n1nc(-c3ccco3)nc21` (stereo not drawn) [Example 89, 2-(5-amino-2-(furan-2-yl)-7H-pyrazolo[4,3-e][1,2,4]triazolo[1,5-c]pyrimidin-7-yl)-N-((3-hydroxyoxetan-3-yl)methyl)-2-(pyridin-3-yl)propanamide], the IC50 is 767 nM.

`Nc1nc2c(cnn2C(C(=O)NC2COc3ccccc32)c2ccccc2)c2nc(-c3ccco3)nn12` (stereo not drawn) [Example 20, 2-(5-amino-2-(furan-2-yl)-7H-pyrazolo[4,3-e][1,2,4]triazolo[1,5-c]pyrimidin-7-yl)-N-(2,3-dihydrobenzofuran-3-yl)-2-phenylacetamide] returned a concentration for half-maximal inhibition (IC50) of 14.6 nM.

`CC(C(=O)NC1CCOCC1)(c1ccccc1)n1ncc2c1nc(N)n1nc(-c3ccco3)nc21` (stereo not drawn) [Example 98, 2-(5-amino-2-(furan-2-yl)-7H-pyrazolo[4,3-e][1,2,4]triazolo[1,5-c]pyrimidin-7-yl)-2-phenyl-N-(tetrahydro-2H-pyran-4-yl)propanamide] yielded an IC50 of 19.2 nM.

`CC(C(=O)NCC1CCCOC1)(c1ccccc1)n1ncc2c1nc(N)n1nc(-c3ccco3)nc21` (stereo not drawn) [Example 61, 2-(5-amino-2-(furan-2-yl)-7H-pyrazolo[4,3-e][1,2,4]triazolo[1,5-c]pyrimidin-7-yl)-2-phenyl-N-((tetrahydro-2H-pyran-3-yl)methyl)propanamide] showed an IC50 of 12.4 nM.

On to `CC(C(=O)NC1CCC(O)C1)(c1ccccc1)n1ncc2c1nc(N)n1nc(-c3ccco3)nc21` (stereo not drawn) [Example 36, 2-(5-amino-2-(furan-2-yl)-7H-pyrazolo[4,3-e][1,2,4]triazolo[1,5-c]pyrimidin-7-yl)-N-(3-hydroxycyclopentyl)-2-phenylpropanamide], for which half-maximal inhibition (IC50) required 12.9 nM.

In turn, `CC(C(=O)NC[C@@H]1CCOC1)(c1ccccc1)n1ncc2c1nc(N)n1nc(-c3ccco3)nc21` (stereo partly drawn) [Example 53, 2-(5-amino-2-(furan-2-yl)-7H-pyrazolo[4,3-e][1,2,4]triazolo[1,5-c]pyrimidin-7-yl)-2-phenyl-N—(((S)-tetrahydrofuran-3-yl)methyl)propanamide] had an IC50 of 12.5 nM.

`CC(C(=O)NCC1(O)COC1)(c1ccccc1F)n1ncc2c1nc(N)n1nc(-c3ccco3)nc21` (stereo not drawn) [Example 87, 2-(5-amino-2-(furan-2-yl)-7H-pyrazolo[4,3-e][1,2,4]triazolo[1,5-c]pyrimidin-7-yl)-2-(2-fluorophenyl)-N-((3-hydroxyoxetan-3-yl)methyl)propanamide] yielded an IC50 of 4.9 nM. This IC50 is about 2.6-fold lower than that of the compound before.

The compound `COc1ccnc(CNC(=O)[C@@](C)(c2ccccc2)n2ncc3c2nc(N)n2nc(-c4ccco4)nc32)c1` [Example 114B, (R)-2-(5-amino-2-(furan-2-yl)-7H-pyrazolo[4,3-e][1,2,4]triazolo[1,5-c]pyrimidin-7-yl)-N-((4-methoxypyridin-2-yl)methyl)-2-phenylpropanamide] had an IC50 of 4.6 nM.

The compound `CC(C(=O)N[C@@H]1CCCOC1)(c1ccccc1)n1ncc2c1nc(N)n1nc(-c3ccco3)nc21` (stereo partly drawn) [Example 60, 2-(5-amino-2-(furan-2-yl)-7H-pyrazolo[4,3-e][1,2,4]triazolo[1,5-c]pyrimidin-7-yl)-2-phenyl-N—((R)-tetrahydro-2H-pyran-3-yl)propanamide] registered an IC50 of 8.2 nM.

The compound `CN(C)CCNC(=O)C(C)(c1ccccc1)n1ncc2c1nc(N)n1nc(-c3ccco3)nc21` (stereo not drawn) [Example 62, 2-(5-amino-2-(furan-2-yl)-7H-pyrazolo[4,3-e][1,2,4]triazolo[1,5-c]pyrimidin-7-yl)-N-(2-(dimethylamino)ethyl)-2-phenylpropanamide] yielded an IC50 of 91.1 nM.

Consider `CC(C(=O)NC1CCCC(O)C1)(c1ccccc1)n1ncc2c1nc(N)n1nc(-c3ccco3)nc21` (stereo not drawn) [Example 99, 2-(5-amino-2-(furan-2-yl)-7H-pyrazolo[4,3-e][1,2,4]triazolo[1,5-c]pyrimidin-7-yl)-N-(3-hydroxycyclohexyl)-2-phenylpropanamide], for which it took 12 nM to reach half-maximal inhibition (IC50).

`CC(C(=O)NCC1(O)CCCCC1)(c1ccccc1)n1ncc2c1nc(N)n1nc(-c3ccco3)nc21` (stereo not drawn) [Example 72, 2-(5-amino-2-(furan-2-yl)-7H-pyrazolo[4,3-e][1,2,4]triazolo[1,5-c]pyrimidin-7-yl)-N-((1-hydroxycyclohexyl)methyl)-2-phenylpropanamide] came in with an IC50 of 7.8 nM.

As for `Nc1nc2c(cnn2C(C(=O)NC2CCOCC2)c2ccccc2)c2nc(-c3ccco3)nn12` (stereo not drawn) [Example 11, 2-(5-amino-2-(furan-2-yl)-7H-pyrazolo[4,3-e][1,2,4]triazolo[1,5-c]pyrimidin-7-yl)-2-phenyl-N-(tetrahydro-2H-pyran-4-yl)acetamide], the IC50 came out at 36 nM.

`COCCOc1ccc(N2CCN(CCNC(=O)C(C)(c3ccccc3)n3ncc4c3nc(N)n3nc(-c5ccco5)nc43)CC2)cc1` (stereo not drawn) [Example 44, 2-(5-amino-2-(furan-2-yl)-7H-pyrazolo[4,3-e][1,2,4]triazolo[1,5-c]pyrimidin-7-yl)-N-(2-(4-(4-(2-methoxyethoxy)phenyl)piperazin-1-yl)ethyl)-2-phenylpropanamide] returned a half-inhibitory concentration (IC50) of 22.5 nM.

For `C[C@](C(=O)NCc1ccc(C(F)(F)F)cn1)(c1ccccc1)n1ncc2c1nc(N)n1nc(-c3ccco3)nc21` [Example 142B, (R)-2-(5-amino-2-(furan-2-yl)-7H-pyrazolo[4,3-e][1,2,4]triazolo[1,5-c]pyrimidin-7-yl)-2-phenyl-N-((5-(trifluoromethyl)pyridin-2-yl)methyl)propanamide], the IC50 was 1 nM. Against the preceding compound, the IC50 is about 22-fold lower.

Turning to `C[C@](C(=O)NCCC1CCC(O)CC1)(c1ccccc1)n1ncc2c1nc(N)n1nc(-c3ccco3)nc21` (stereo partly drawn) [Example 149B, (R)-2-(5-amino-2-(furan-2-yl)-7H-pyrazolo[4,3-e][1,2,4]triazolo[1,5-c]pyrimidin-7-yl)-N-(2-(4-hydroxycyclohexyl)ethyl)-2-phenylpropanamide], half-maximal inhibition (IC50) required 1.7 nM.

Consider `C[C@](C(=O)NCc1cc(C(F)(F)F)ccn1)(c1ccccc1)n1ncc2c1nc(N)n1nc(-c3ccco3)nc21` [Example 143B, (R)-2-(5-amino-2-(furan-2-yl)-7H-pyrazolo[4,3-e][1,2,4]triazolo[1,5-c]pyrimidin-7-yl)-2-phenyl-N-((4-(trifluoromethyl)pyridin-2-yl)methyl)propanamide], for which inhibition was half-maximal at 5.8 nM (IC50).

`CC(C(=O)NCc1cccc(F)n1)(c1ccccc1)n1ncc2c1nc(N)n1nc(-c3ccco3)nc21` (stereo not drawn) [Example 116, 2-(5-amino-2-(furan-2-yl)-7H-pyrazolo[4,3-e][1,2,4]triazolo[1,5-c]pyrimidin-7-yl)-N-((6-fluoropyridin-2-yl)methyl)-2-phenylpropanamide]: half-maximal inhibition (IC50) was put at 2.2 nM.

Consider `CC(C(=O)NCC1(O)CC1)(c1ccccc1)n1ncc2c1nc(N)n1nc(-c3ccco3)nc21` (stereo not drawn) [Example 88, 2-(5-amino-2-(furan-2-yl)-7H-pyrazolo[4,3-e][1,2,4]triazolo[1,5-c]pyrimidin-7-yl)-N-((1-hydroxycyclopropyl)methyl)-2-phenylpropanamide], for which 437 nM corresponded to half-maximal inhibition (IC50).
